Results taken from patent publication US10052321B2, “Nanoparticulate compositions and formulations of piperazine compounds” (Rexahn Pharmaceuticals, Inc., priority 2013, dated 2018).

Key:
[1] = Thermal analysis (TGA / DSC); format: physicochemical
From the text: (§1) API morphology can be characterized by optical microscopy (e.g., Olympus BX51 microscope with Clemex JS-2000 controller). Differential scanning calorimetry (e.g., Mettler-Toledo DSC 1) and thermogravimetric analysis (e.g., Mettler-Toledo TGA/DSC 1) can be used to measure the thermal characteristics of the material. Particle size measurements can be made throughout by, for example, laser diffraction (e.g. Horiba LA-950V2), by dispersing the material, either in water, when surfactant is present in the test sample or in a dilute solution of poloxamer when no other dispersant was present.
Mass loss after 220° C. may be attributable to thermal degradation.
Differential scanning calorimetry (see FIG. 4) confirmed the endotherm related to the initial mass loss at 108° C.

[2] = Particle size of unmilled API by laser diffraction; format: physicochemical; settings: dispersed in aqueous solution of Aerosol OT
From the text: as §1
Based on chemical structure, the refractive index of 1-(3,5-dimethoxyphenyl)-4-[(6-fluoro-2-methoxyquinoxalin-3-yl)aminocarbonyl]piperazine was predicted to be 1.637. For particle size measurements, the imaginary component of the refractive index, or the i-value (a unitless factor used by the laser diffraction algorithm to account for the absorption of light by the particles) was determined to be 0.1. Unmilled 1-(3,5-Dimethoxyphenyl)-4-[(6-fluoro-2-methoxyquinoxalin-3-yl)aminocarbonyl]piperazine dispersed readily in an aqueous solution of (Aerosol OT). The median particle size (D50) measured at 13 μm.

Solubility in water = format: physicochemical
Protocol: This poor solubility in water makes it difficult to deliver the compound and related compounds of formula (1) and has limited clinical development, thus creating a need for the development of a formulation suitable for clinical use. The present invention was developed with a goal of obtaining a suitable formulation that can provide a stable suspension of the compound at a concentration of about 100 mg/mL or a dried formulation that could be either delivered orally or used to prepare a stable suspension. While the invention is described and exemplified primarily with respect to 1-(3,5-dimethoxyphenyl)-4-[(6-fluoro-2-methoxyquinoxalin-3-yl)aminocarbonyl]piperazine, it is to be understood that the invention is applicable to other compounds of formula (1).
1-(3,5-Dimethoxyphenyl)-4-[(6-fluoro-2-methoxyquinoxalin-3-yl)aminocarbonyl]piperazine has a very poor solubility in water, less than 0.1 μg/ml, and its solubility was tested in several co-solvents. […] Thus, these classical formulations are not useful in clinical use, although they could be used in some limited purpose in pre-clinical studies.
Particles were crystalline and irregularly shaped. FIG. 1 illustrates particles of 1-(3,5-Dimethoxyphenyl)-4-[(6-fluoro-2-methoxyquinoxalin-3-yl)aminocarbonyl]piperazine at 400× Magnification. […]

[3] = Oral bioavailability in animal model studies; format: in vivo
From the text: Because of the poor aqueous solubility of 1-(3,5-dimethoxyphenyl)-4-[(6-fluoro-2-methoxyquinoxalin-3-yl)aminocarbonyl]piperazine, production of a submicron suspension needed to be developed as a viable oral delivery option to avoid the need to administer large volumes of a 1-(3,5-dimethoxyphenyl)-4-[(6-fluoro-2-methoxyquinoxalin-3-yl)aminocarbonyl]piperazine solution to achieve the intended dosage levels.

SMILES: COc1cc(OC)cc(N2CCN(C(=O)Nc3nc4cc(F)ccc4nc3OC)CC2)c1 [Compound A, 1-(3,5-Dimethoxyphenyl)-4-[(6-fluoro-2-methoxyquinoxalin-3-yl)aminocarbonyl]piperazine]
- thermal stability ([1]; TGA and DSC data): thermally stable
- no indication of decomposition until ([1]; differential scanning calorimetry): 223 °C
- median particle size (D50) [2]: 13 μm
- solubility (Solubility in water): < 0.1 µg/mL
- solubility in water (Solubility in water): practically insoluble
- oral bioavailability [3]: good oral bioavailability
